Data from PMC6733504, “Effects of flavoring compounds used in electronic cigarette refill liquids on endothelial and vascular function” (PLoS ONE, 2019).
Where two headings read alike, the source gives them in different places.

What was measured:
[1] = tested on: endothelium-denuded rat aortic rings; test: cAMP and cGMP levels in endothelium-denuded aortic rings
Description: 1 S4 Table. […]
2 endothelium-denuded rat aortic rings.
Flavoring (fmol x mg-1) (fmol x mg-1)
4 En d o th e liu m-denuded rings, treated with test compounds as described in the
5 Materials and methods section of the main text, were freeze-clamped when maximal
6 relaxation had been reached. Rings were homogenized in 5% trichloroacetic acid
7 and analyzed for cAMP and cGMP by radioimmunoassay. Forskolin and DEA/NO
8 were used to induce maximal accumulation of cAMP and cGMP, respectively. Data
9 shown are mean values±SEM of 3 (forskolin and DEA/NO) or 6 (basal,
10 cinnamaldehyde and eugenol) rings; n.d., not determined, *p<0.05 vs. basal (ANOVA
11 and Dunnett's post hoc test).

[2] = tested on: endothelial cells; test: MTT to formazan conversion (viability); format: cell-based, porcine; settings: 1 mM, 60 minutes
Method: The viability of endothelial cells was judged by incubation with 1 mM of the flavoring compounds, followed by determination of 3-(4,5-dimethyl-2-thiazolyl)-2,5-diphenyltetrazolium bromide (MTT) to formazan conversion using the Cayman MTT Cell Proliferation Assay Kit purchased through VWR International (Vienna, Austria).

[3] = Electrochemical determination of NO released from DEA/NO (NO scavenging); settings: DEA/NO 1 μM
Method: Scavenging of NO by flavoring compounds was studied with a nitric oxide sensor (ISO-NOP, World Precision Instruments, Berlin, Germany), calibrated with acidified nitrite as described previously. Free NO radical was generated by incubation of DEA/NO (1 μM) in 1 ml of 100 mM phosphate buffer, pH 7.4, in the absence or presence of superoxide dismutase (2500 U/ml) at ambient temperature. At the peak concentration of NO, flavoring compounds (10 μl of DSMO stock solutions) were added, DMSO served as vehicle control.

[4] = tested on: rat aortic rings; test: Effect of flavorings on vascular tone of U-46619 precontracted aortic rings; settings: 95% CI
Method: Unsexed Sprague-Dawley rats (obtained from Charles River, Sulzfeld, Germany) were housed at the local animal facility in approved cages. […] Animals were euthanized in a box that was gradually filled with CO2 until vital signs had ceased (cessation of respiration and circulation). Subsequently, the thorax of the animals was opened, the thoracic aorta was removed, cleaned from connective tissue and immediately used for assessment of vessel function.
After equilibration for 60 min at the optimal resting tension of 20 mN, maximal contractile activity was determined with a depolarizing solution containing 60 mM K^+. […] When contraction had reached a stable plateau (~after 20 min) cumulative concentration-response curves were established with flavorings. Where indicated, the effects of the flavorings on vascular tone were tested in the presence of the NOS inhibitor N^G-nitro-L-arginine methyl ester (L-NAME, 0.2 mM).
Concentration-response curves of different ring segments from a single animal were averaged and counted as an individual experiment.

[5] = tested on: Porcine aortic endothelial cells (endogenous NO/cGMP pathway); test: A23187 (Ca2+ ionophore)-induced endothelial cGMP formation; format: cell-based
Method: (§1) Porcine aortic endothelial cells were isolated as described and cultured at 37°C, 5% CO2 for up to 3 passages in Dulbecco´s modified Eagle´s medium, containing 10% heat-inactivated fetal calf serum (FCS), 100 U/ml penicillin, 0.1 mg/ml streptomycin, and 1.25 μg/ml amphotericin B. Prior to experiments, cells were subcultured into 24-well plates (determination of cGMP formation) or 6-well plates (determination of L-citrulline formation).
Accumulation of intracellular 3',5'-cyclic GMP (cGMP) was determined as previously described. Briefly, endothelial cells were washed and preincubated with the compounds to be tested for 15 minutes at 37°C in 50 mM Tris buffer, pH 7.4, containing 100 mM NaCl, 5 mM KCl, 1 mM MgCl2, 2.5 mM CaCl2, 1 mM 3-isobutyl-1-methylxanthine, and 1 μM indomethacin. Reactions were started by addition of the Ca^2+ ionophore A 23187 (final concentration 1 μM) or the NO donor DEA/NO (final concentration 1 μM) and terminated after 4 minutes by removal of the incubation medium and addition of 0.01 M HCl. Within 1 h, intracellular cGMP was completely released into the supernatant and measured by radioimmunoassay.

[6] = tested on: endothelium-denuded rat aortic rings; test: CaCl2-induced contractile response in endothelium-denuded aortic rings; settings: Ca2+-free high K+ solution, CaCl2 0.156-2.5 mM
Method: Rings were treated with Ca2+-
4 free high K+ solution (containing 0.1 mM EG TA a n d 6 0 mM K+). The Ca2+-free
5 preparations were then cumulatively contracted with CaCl2 (0.156-2.5 mM) in the
6 absence or presence of cinnamaldehyde or eugenol. The established L-type Ca2+
9 Concentration-response curves obtained with different ring segments from a single
10 animal were averaged and counted as an individual experiment. Data are expressed
11 as mean values ±SEM ( n=3).
(1 picture or pasted object on this page, not shown here)

[7] = tested on: Porcine aortic endothelial cells (endothelial sGC); test: DEA/NO-induced endothelial cGMP formation; format: cell-based; settings: for DEA/NO-stimulated endothelial cGMP formation: 1 mM
Method: as §1
Accumulation of intracellular 3',5'-cyclic GMP (cGMP) was determined as previously described. […] Reactions were started by addition of the Ca^2+ ionophore A 23187 (final concentration 1 μM) or the NO donor DEA/NO (final concentration 1 μM) and terminated after 4 minutes by removal of the incubation medium and addition of 0.01 M HCl. Within 1 h, intracellular cGMP was completely released into the supernatant and measured by radioimmunoassay.

[8] = tested on: endothelial cells; settings: pig, 1 h, 1 mM
Method: (§2) To test for membrane integrity, endothelial cells were assayed for release of lactate dehydrogenase (LDH) into the culture medium. Subsequent to incubation with flavoring compounds (1 mM each) for 1 hour, 20-μl aliquots of the culture media were mixed with 200 μl of reagent buffer (1 mM pyruvate and 0.1 mM NAD^+ in PBS). The decrease in light absorbance at 340 nm was monitored using a diode array spectrophotometer (Hewlett Packard 8452A). Maximum LDH release was determined by treating the cells with 1% Triton X-100.

[9] = Estimated plasma concentration upon inhalation of cinnamaldehyde-containing aerosol; set-up: species or system human; settings: 10 ml of 6.9 mM liquid, plasma volume 3 liters, 100% bioavailability, no distribution, metabolism or clearance
[10] = rats, cited from earlier work
[11] = tested on: endothelial cells; test: LDH release (membrane integrity); settings: 1 mM, 60 minutes; maximum = 1% Triton
Method: as §2

[12] = Rattus norvegicus, absence of L-NAME, read-out: EC50 of relaxation of pre-contracted vessels (Control)
[13] = Rattus norvegicus, presence of L-NAME 0.2 mM, read-out: EC50 of relaxation of pre-contracted vessels (L-NAME)

SMILES	cAMP ([1]; 1 mM)	cGMP ([1]; 1 mM)	cAMP ([1]; 10 mM)	cGMP ([1]; 10 mM)	Formazan formation (% of control) [2]	EC50 [4, 12]	EC50 [4, 13]	Effect on CaCl2-induced contraction [6]	other results
O=C/C=C/c1ccccc1 [Cinnamaldehyde, (2E)-3-Phenylprop-2-enal]	200±36 fmol x mg-1	127±10 fmol x mg-1	161±7 fmol x mg-1	86±7 fmol x mg-1	91±2.6 % of control	~500 µM	600 µM	significantly inhibited	Effect on recorded NO signal (NO scavenging) ([3]; 1 mM): only moderate effects; Effect on recorded NO signal (NO scavenging) ([3]; 10 mM): pronounced decrease; Concentration inhibiting Ca2+-stimulated endothelial cGMP accumulation [5]: ≥ 0.3 mM; A23187-induced cGMP formation ([5]; flavoring 1 mM, 15 min preincubation, 1 μM A23187 for 4 min (Fig 1A)): about 35 % of controls; DEA/NO-stimulated endothelial cGMP formation ([7]; incubation for 15 minutes (Fig 2B)): 25.3±3.9 % of controls; DEA/NO-stimulated endothelial cGMP formation ([7]; incubation for 75 minutes (Fig 2B)): 10.4±2.4 % of controls; DEA/NO-induced cGMP formation ([7]; flavoring 1 mM, 15 min preincubation, 1 μM DEA/NO for 4 min (Fig 1B)): about 35 % of controls; LDH release (% of maximum) [8]: 1.8±0.50 % of maximum; Estimated plasma concentration [9]: 23 µM; Maximal plasma concentration ([10]; intravenous bolus 25 mg/kg): 20 µM; Maximal plasma concentration ([10]; oral 500 mg/kg): about 2 μM
C=CCc1ccc(O)c(OC)c1 [Eugenol, 2-Methoxy-4-(prop-2-en-1-yl)phenol]	162±9 fmol x mg-1	81±4 fmol x mg-1	171±24 fmol x mg-1	71±18 fmol x mg-1	107±4.6 % of control	~500 µM	500 µM	significantly inhibited	EC50 ([4]; absence of L-NAME, read-out: EC50 of relaxation of pre-contracted vessels (Control)): 400 µM; LDH release (% of maximum) [11]: 0.4±0.23 % of maximum
